Laboratory results from ChEMBL document CHEMBL1145450, “Platinum complexes can inhibit matrix metalloproteinase activity: platinum-diethyl[(methylsulfinyl)methyl]phosphonate complexes as inhibitors of matrix metalloproteinases 2, 3, 9, and 12” (J Med Chem, 2007).

Key:
[1] = biological target: Macrophage metalloelastase (Homo sapiens, UniProt P39900); assay: Inhibition of human recombinant MMP12 after 1 hr
[2] = biological target: 72 kDa type IV collagenase (Homo sapiens, UniProt P08253); assay: Inhibition of human recombinant MMP2 after 1 hr
Sequence of 72 kDa type IV collagenase (P08253 whole entry): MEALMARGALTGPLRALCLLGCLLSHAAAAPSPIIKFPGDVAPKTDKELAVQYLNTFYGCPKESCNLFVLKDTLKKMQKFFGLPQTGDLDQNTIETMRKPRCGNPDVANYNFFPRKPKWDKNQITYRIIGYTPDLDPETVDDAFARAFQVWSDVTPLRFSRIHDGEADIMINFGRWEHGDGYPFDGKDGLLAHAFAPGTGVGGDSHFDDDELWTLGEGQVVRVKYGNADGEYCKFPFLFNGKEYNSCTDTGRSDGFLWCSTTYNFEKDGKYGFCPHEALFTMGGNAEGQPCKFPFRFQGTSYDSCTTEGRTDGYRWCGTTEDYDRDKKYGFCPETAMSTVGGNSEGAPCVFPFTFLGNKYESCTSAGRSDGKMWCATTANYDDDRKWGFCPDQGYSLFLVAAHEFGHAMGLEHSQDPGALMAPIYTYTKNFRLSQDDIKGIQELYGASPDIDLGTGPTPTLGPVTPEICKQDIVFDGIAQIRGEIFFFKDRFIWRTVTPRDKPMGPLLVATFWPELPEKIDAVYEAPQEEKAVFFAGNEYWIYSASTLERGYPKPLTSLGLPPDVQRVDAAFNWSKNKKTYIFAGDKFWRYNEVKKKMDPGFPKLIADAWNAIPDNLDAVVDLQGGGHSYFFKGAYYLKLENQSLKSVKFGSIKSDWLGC

Stromelysin-1 = Stromelysin-1 (Homo sapiens, UniProt P08254); assay: Inhibition of human recombinant MMP3 after 1 hr
Sequence of Stromelysin-1 (P08254 whole entry): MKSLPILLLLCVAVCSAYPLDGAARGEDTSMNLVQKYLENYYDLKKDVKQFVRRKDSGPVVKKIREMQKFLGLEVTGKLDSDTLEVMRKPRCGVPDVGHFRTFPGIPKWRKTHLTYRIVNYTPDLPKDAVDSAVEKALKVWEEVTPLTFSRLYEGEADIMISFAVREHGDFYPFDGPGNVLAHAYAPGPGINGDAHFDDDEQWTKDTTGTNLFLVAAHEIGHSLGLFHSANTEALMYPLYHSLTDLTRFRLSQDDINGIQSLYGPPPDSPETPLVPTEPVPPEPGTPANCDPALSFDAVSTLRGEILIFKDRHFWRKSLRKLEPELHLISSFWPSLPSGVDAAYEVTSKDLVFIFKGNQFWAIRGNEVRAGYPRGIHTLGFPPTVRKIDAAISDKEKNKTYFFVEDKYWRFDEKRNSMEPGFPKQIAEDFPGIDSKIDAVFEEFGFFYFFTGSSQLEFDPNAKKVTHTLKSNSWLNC

[3] = biological target: Matrix metalloproteinase-9 (Homo sapiens, UniProt P14780); assay: Inhibition of human recombinant MMP9 after 1 hr
Sequence of Matrix metalloproteinase-9 (P14780 whole entry): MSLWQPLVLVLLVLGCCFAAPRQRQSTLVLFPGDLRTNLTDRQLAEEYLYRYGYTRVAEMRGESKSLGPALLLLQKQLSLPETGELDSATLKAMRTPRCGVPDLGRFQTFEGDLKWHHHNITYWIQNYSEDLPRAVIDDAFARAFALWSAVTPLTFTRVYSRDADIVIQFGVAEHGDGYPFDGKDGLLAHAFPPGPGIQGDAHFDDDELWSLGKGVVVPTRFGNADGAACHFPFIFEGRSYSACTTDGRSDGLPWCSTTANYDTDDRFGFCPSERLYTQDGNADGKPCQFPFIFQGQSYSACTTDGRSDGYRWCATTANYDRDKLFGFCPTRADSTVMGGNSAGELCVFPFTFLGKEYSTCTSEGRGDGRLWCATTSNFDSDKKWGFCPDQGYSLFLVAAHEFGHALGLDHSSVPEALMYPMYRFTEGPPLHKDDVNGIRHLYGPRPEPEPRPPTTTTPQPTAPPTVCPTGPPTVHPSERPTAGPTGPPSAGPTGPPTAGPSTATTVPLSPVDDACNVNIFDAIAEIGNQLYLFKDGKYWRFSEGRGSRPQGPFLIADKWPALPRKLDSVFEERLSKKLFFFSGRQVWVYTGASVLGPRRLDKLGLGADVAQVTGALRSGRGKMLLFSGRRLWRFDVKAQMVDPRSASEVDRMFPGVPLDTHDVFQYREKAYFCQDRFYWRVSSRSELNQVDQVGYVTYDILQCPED

Sequence of Macrophage metalloelastase (P39900 whole entry): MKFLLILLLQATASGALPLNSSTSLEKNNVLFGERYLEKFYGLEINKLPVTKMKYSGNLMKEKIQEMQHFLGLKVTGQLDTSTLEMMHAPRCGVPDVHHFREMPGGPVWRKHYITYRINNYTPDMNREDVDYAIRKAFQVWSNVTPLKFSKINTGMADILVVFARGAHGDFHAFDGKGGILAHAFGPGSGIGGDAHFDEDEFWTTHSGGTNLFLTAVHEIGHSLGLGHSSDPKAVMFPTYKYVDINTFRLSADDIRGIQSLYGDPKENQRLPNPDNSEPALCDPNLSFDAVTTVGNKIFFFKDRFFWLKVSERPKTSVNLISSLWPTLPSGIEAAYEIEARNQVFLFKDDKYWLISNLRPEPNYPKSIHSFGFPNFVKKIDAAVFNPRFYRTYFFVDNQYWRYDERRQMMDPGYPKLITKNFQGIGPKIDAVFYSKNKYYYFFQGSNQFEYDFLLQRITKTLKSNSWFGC

IC50 [1]: 121 µM | IC50 [2]: 145 µM | IC50 (Stromelysin-1): 300 µM | IC50 [3]: 320 µM
SMILES: O=P(O)(O)C(Cl)(Cl)P(=O)(O)O [CLODRONIC ACID]
